Measurements reported in patent US8420681B2, “Dioxo-imidazolidine derivatives, which inhibit the enzyme SOAT-1, and pharmaceutical and cosmetic compositions containing them” (Galderma Research & Development, priority 2009, dated 2013).

molecular target: T1, enzyme ACAT-1 (Homo sapiens, UniProt P35610); assay: HepG2 NBD-cholesterol fluorescence test of inhibitory activity towards ACAT-1 (SOAT-1); format: cell-based; settings: HepG2 cells, NBD-cholesterol 1 μg/ml, incubation 6 hours at 37° C., fluorescence read (490/540 nm)
T1 construct: endogenous in cells; host or cells: HepG2
T1 sequence (P35610 1-550): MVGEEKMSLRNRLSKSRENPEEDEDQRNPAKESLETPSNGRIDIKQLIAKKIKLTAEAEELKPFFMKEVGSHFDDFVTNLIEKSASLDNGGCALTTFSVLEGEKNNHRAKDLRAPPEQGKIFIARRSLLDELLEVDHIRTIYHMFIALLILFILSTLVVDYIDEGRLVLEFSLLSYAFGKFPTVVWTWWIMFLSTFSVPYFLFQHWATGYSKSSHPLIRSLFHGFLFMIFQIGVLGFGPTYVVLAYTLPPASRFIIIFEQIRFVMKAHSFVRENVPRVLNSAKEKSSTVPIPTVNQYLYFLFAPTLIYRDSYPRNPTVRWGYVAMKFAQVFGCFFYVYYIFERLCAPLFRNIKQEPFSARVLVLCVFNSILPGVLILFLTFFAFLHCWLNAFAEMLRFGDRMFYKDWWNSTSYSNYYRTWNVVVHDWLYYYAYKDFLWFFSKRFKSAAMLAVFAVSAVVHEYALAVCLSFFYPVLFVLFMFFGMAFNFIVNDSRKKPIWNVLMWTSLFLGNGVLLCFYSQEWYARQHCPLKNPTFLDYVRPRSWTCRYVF
Protocol: The compounds (I) according to the invention, and also the pharmaceutically acceptable salts, solvates and/or hydrates thereof, have inhibitory properties on the enzyme SOAT-1. This inhibitory activity on the enzyme SOAT-1 is measured according to a HepG2 primary enzymatic test, as described in Example 23.
The compounds of formula (I) according to the invention were subjected to a test for evaluating their inhibitory activity towards the enzyme ACAT-1, inspired by the following publication: “Identification of ACAT1- and ACAT2-specific inhibitors using a novel, cell based fluorescence assay: individual ACAT uniqueness”, J. Lipid. Res. (2004) vol. 45, pages 378-386.
The principle of this test is based on the use of NBD-cholesterol, a cholesterol analogue whose fluorescence depends on its environment. When this molecule is in a polar environment, it is weakly fluorescent, whereas in a non-polar environment, it is strongly fluorescent. Free NBD-cholesterol becomes inserted in cell membranes and is weakly fluorescent in this polar environment. When NBD-cholesterol is esterified with ACAT, the NBD-cholesterol ester enters non-polar lipid droplets and is then strongly fluorescent.
The method below is applied: HepG2 cells are incubated in the presence of NBD-cholesterol (1 μg/ml) and of the test compound of formula (I) in black 96-well transparent-bottomed plates, at a rate of 30 000 cells per well. After incubation for 6 hours at 37° C. under 5% CO2, the medium is removed by turning upside-down and the cells are washed with twice 100 μl of PBS. After addition of 50 μl of lysis buffer (10 mM NaPO4, 1% Igepal), the plates are shaken for 5 minutes and the fluorescence is read (excitation at 490 nm, emission at 540 nm) on a Fusion machine (Perkin-Elmer).

Row | Structure (SMILES) | IC50
1 | CC[C@H](NC(=O)CN1C(=O)N(c2ccc(C)cc2)C2(CCCCC2)C1=O)c1ccccc1 [Compound 6, 2-(2,4-dioxo-1-p-tolyl-1,3-diaza-spiro[4.5]dec-3-yl)-N-((S)-1-phenylpropyl)-acetamide] | 36 nM
2 | Cc1ccc(N2C(=O)N(CC(=O)NC(c3ccccc3C)C(C)C)C(=O)C23CCCCC3)cc1 (stereo not shown) [Compound 9, 2-(2,4-dioxo-1-p-tolyl-1,3-diaza-spiro[4.5]dec-3-yl)-N-(2-methyl-1-o-tolylpropyl)-acetamide] | 100 nM
3 | CCC(NC(=O)CN1C(=O)N(c2ccc(C)cc2)C2(CCCCC2)C1=O)c1ccc(C)cc1 (stereo not shown) [Compound 13, 2-(2,4-dioxo-1-p-tolyl-1,3-diaza-spiro[4.5]dec-3-yl)-N-(1-p-tolyl-propyl)acetamide] | 60 nM

Continued by falling IC50, values first:

Row | IC50 | Structure (SMILES)
4 | 50 nM | CCC(NC(=O)CN1C(=O)N(c2ccc(C)cc2)C2(CCCCC2)C1=O)c1ccccc1 (stereo not shown) [Compound 4, 2-(2,4-dioxo-1-p-tolyl-1,3-diaza-spiro[4.5]dec-3-yl)-N-(1-phenyl-propyl)acetamide]
5 | 31 nM | CCCC(NC(=O)CN1C(=O)N(c2ccc(C)cc2)C2(CCCCC2)C1=O)c1ccccc1C (stereo not shown) [Compound 8, 2-(2,4-dioxo-1-p-tolyl-1,3-diaza-spiro[4.5]dec-3-yl)-N-(1-o-tolyl-butyl)acetamide]
6 | 23 nM | Cc1ccc(N2C(=O)N(CC(=O)NC(c3ccccc3)C(C)C)C(=O)C23CCCCC3)cc1 (stereo not shown) [Compound 19, 2-(2,4-dioxo-1-p-tolyl-1,3-diaza-spiro[4.5]dec-3-yl)-N-(2-methyl-1-phenylpropyl)-acetamide]
7 | 9 nM | CCC(NC(=O)CN1C(=O)N(c2ccc(C)cc2)C2(CCCCC2)C1=O)c1cccc(C(F)(F)F)c1 (stereo not shown) [Compound 17, 2-(2,4-dioxo-1-p-tolyl-1,3-diaza-spiro[4.5]dec-3-yl)-N-[1-(3-trifluoromethyl-phenyl)propyl]-acetamide]
